The values below are quoted from earlier work in patent publication US12582620B2, “Oral solutions comprising lisdexamfetamine salts” (Adalvo Limited, priority 2019, dated 2026).

Molecules are shown by their SMILES.

Assay in series [1]: not given
This is another data set of the same source.

For series [2] the following is noted: acidic versus alkaline conditions.

In the case of `C[C@@H](Cc1ccccc1)NC(=O)[C@@H](N)CCCCN` [Lisdexamfetamine dimesylate, (2S)-2,6-diamino-N-[(1S)-1-methyl-2-phenylethyl] hexanamide dimethanesulfonate], the Solubility in water result is on record as “very soluble in water”. Besides, the Change of solubility result in series [1] (increasing the pH from 8 to 13) is given as “modest reductions”. Also, in series [1] (physiologically relevant pH range (pH 1-8), saturated buffered aqueous solutions), the Solubility entry is given as “highly soluble”. Moreover, the Susceptibility to hydrolysis entry in series [2] is listed as “more hydrolysis-susceptible under alkaline conditions”.
